In US12281363B2, “Methods for detecting antiviral-drug resistant virus” (Secretary of State for Health and Social Care, priority 2018, dated 2025):
Like-named read-outs stand apart in the source and are kept apart here.

Tested on: HSV-1
Assay: Plaque reduction assay, HSV-1 clinical isolates on Vero cells
Format: cell-based
Settings: Human alphaherpesvirus 1, Vero
Text: Viral isolates were used to infect a sub-confluent monolayer of Vero cells at a concentration of 75 or 50 plaque forming units (PFU) per well for HSV-1 and HSV-2, respectively. […] CMC medium typically used to create a semisolid interface and prevents indiscrimate viral spreading. Other materials (e.g. agar) may also be used to create this interface.
Cells were fixed with 10% formalin and stained with crystal violet before enumeration of the plaques (microscopic observation or use of fluorescent antibodies for detection is also suitable). The data obtained from these experiments were then expressed as percent inhibition of viral infectivity relative to the no drug control.
Definitions of phenotypic drug susceptibility classification as sensitive or resistant were as follows: ACV, <3 μM or >40 μM; PCV, <10 μM or >40 μM; CDV, <24 μM or >30 μM; FOS, <250 μM or >400 μM; and ACV, <6.5 μM or >40 μM; PCV, <38 μM or >40 μM; FOS, <250 μM or >400 μM for HSV-1 and HSV-2, respectively. Any IC50 values falling in between these sensitive and resistant cut-offs were reported as intermediate resistance.
The phenotype (i.e. reactivity to a drug) of the virus was characterised by the plaque reduction assay as described above.

Compound: Nc1nc2c(ncn2COCCO)c(=O)[nH]1 [Aciclovir, acyclovir]
- IC50 (72 h, isolate HPG053, HSV-1 pol L802R + A834S (2405T>G, 2500G>T), also TK R176W, read-out: Drug susceptibility (IC50 value)): > 40 µM
- IC50 (isolate HPG002, HSV-1 pol E992K (2974G>A), also TK insert (G) nt 430-436, pol A1169T, read-out: Drug susceptibility (IC50 value)): 21.6 µM
- IC50 (isolate HPG003, HSV-1 TK Y172S (515A>C), read-out: Drug susceptibility (IC50 value)): 28 µM
- IC50 (isolate HPG005, HSV-1 TK A37V (110C>T), read-out: Drug susceptibility (IC50 value)): 1.46 µM
- IC50 (isolate HPG008, HSV-1 TK V204G (611T>G), read-out: Drug susceptibility (IC50 value)): 22.5 µM
- IC50 (isolate HPG009, HSV-1 pol E992K (2974G>A), also pol A1169T, read-out: Drug susceptibility (IC50 value)): 1.3 µM
- IC50 (isolate HPG010, HSV-1 TK Q125* (373C>T), read-out: Drug susceptibility (IC50 value)): 9.21 µM
- IC50 (isolate HPG011, HSV-1 TK Q125* (373C>T), read-out: Drug susceptibility (IC50 value)): 13.8 µM
- IC50 (isolate HPG013, HSV-1 TK M121I (363G>A), read-out: Drug susceptibility (IC50 value)): 18.8 µM
- IC50 (isolate HPG013, HSV-1 pol D83A (248A>C), also TK M121I, pol A1169T, read-out: Drug susceptibility (IC50 value)): 18.8 µM
- IC50 (isolate HPG014, HSV-1 pol A1115T (3343G>A), read-out: Drug susceptibility (IC50 value)): 1.41 µM
- IC50 (isolate HPG014, HSV-1 pol R993C (2977C>T), read-out: Drug susceptibility (IC50 value)): 1.41 µM
- IC50 (isolate HPG014, HSV-1 pol T54A (160A>G), read-out: Drug susceptibility (IC50 value)): 1.41 µM
- IC50 (isolate HPG015, HSV-1 pol 966stop or F965_I966insF (2892_2893insT to 2895_2896insT), read-out: Drug susceptibility (IC50 value)): 2.4 µM
- IC50 (isolate HPG018, HSV-1 TK frameshift (881delC to 885delC), read-out: Drug susceptibility (IC50 value)): 24.7 µM
- IC50 (isolate HPG018, HSV-1 pol P1199T (3595C>A), also TK deletion (C) nt 881-885, pol A1169T, read-out: Drug susceptibility (IC50 value)): 24.7 µM
- IC50 (isolate HPG019, HSV-1 pol K750T (2249A>C), also TK deletion (G) nt 430-436, pol A1169T, read-out: Drug susceptibility (IC50 value)): > 40 µM
- IC50 (isolate HPG020, HSV-1 pol S911N (2732G>A), also pol A1169T, read-out: Drug susceptibility (IC50 value)): 0.56 µM
- IC50 (isolate HPG021, HSV-1 pol R681Q (2042G>A), also TK deletion (G) nt 430-436, read-out: Drug susceptibility (IC50 value)): > 40 µM
- IC50 (isolate HPG021, HSV-1 pol T839A (2515A>G), also TK deletion (G) nt 430-436, read-out: Drug susceptibility (IC50 value)): > 40 µM
- IC50 (isolate HPG025, HSV-1 pol E850Q (2548G>C), also TK R216C, read-out: Drug susceptibility (IC50 value)): 22.2 µM
- IC50 (isolate HPG026, HSV-1 pol E850Q (2548G>C), also TK R216C, pol A1169T, read-out: Drug susceptibility (IC50 value)): 18.1 µM
- IC50 (isolate HPG027, HSV-1 TK V204G (611T>G), also pol S914L, A1169AT, read-out: Drug susceptibility (IC50 value)): > 40 µM
- IC50 (isolate HPG027, HSV-1 pol S914L (2741C>T), also TK V204G, pol A1169T, read-out: Drug susceptibility (IC50 value)): > 40 µM
- IC50 (isolate HPG029, HSV-1 TK Y172S (515A>C), read-out: Drug susceptibility (IC50 value)): > 40 µM
- IC50 (isolate HPG031, HSV-1 pol E1120A (3359A>C), also a TK resistance mutation (footnote e), read-out: Drug susceptibility (IC50 value)): 27.7 µM
- IC50 (isolate HPG031, HSV-1 pol G139R (415G>C or 415G>A), also a TK resistance mutation (footnote e), read-out: Drug susceptibility (IC50 value)): 27.7 µM
- IC50 (isolate HPG032, HSV-1 TK 183* (437_438insA), read-out: Drug susceptibility (IC50 value)): 27.4 µM
- IC50 (isolate HPG033, HSV-1 TK I358L (1072A>C), also TK T287M, read-out: Drug susceptibility (IC50 value)): 38.9 µM
- IC50 (isolate HPG033, HSV-1 pol N1046T (3137A>C), also TK T287M, pol A1169T, read-out: Drug susceptibility (IC50 value)): 38.9 µM
- IC50 (isolate HPG035, HSV-1 pol S239L (716C>T), also pol S724N, read-out: Drug susceptibility (IC50 value)): 5.43 µM
- IC50 (isolate HPG037, HSV-1 TK R256W (766C>T), read-out: Drug susceptibility (IC50 value)): 24.8 µM
- IC50 (isolate HPG037, HSV-1 TK Y239H (715T>C), read-out: Drug susceptibility (IC50 value)): 24.8 µM
- IC50 (isolate HPG039, HSV-1 TK 85* or H58fs (169delC, 170delC, 171delC, or 172delC), read-out: Drug susceptibility (IC50 value)): 25.6 µM
- IC50 (isolate HPG040, HSV-1 pol S911N (2732G>A), also TK deletion (C) nt 896-900, pol A1169T, read-out: Drug susceptibility (IC50 value)): > 40 µM
- IC50 (isolate HPG041, HSV-1 pol S911N (2732G>A), also pol A1169T, read-out: Drug susceptibility (IC50 value)): 0.5 µM
- IC50 (isolate HPG042, HSV-1 pol A972V (2915C>T), also TK deletion (C) nt 881-885, pol A1169T, read-out: Drug susceptibility (IC50 value)): > 40 µM
- IC50 (isolate HPG042, HSV-1 pol G22R (64G>A), also TK deletion (C) nt 881-885, pol A1169T, read-out: Drug susceptibility (IC50 value)): > 40 µM
- IC50 (isolate HPG043, HSV-1 TK 183* (437_438insA), read-out: Drug susceptibility (IC50 value)): 28.5 µM
- IC50 (isolate HPG045, HSV-1 TK L49R (146T>G), read-out: Drug susceptibility (IC50 value)): 31.5 µM
- IC50 (isolate HPG045, HSV-1 pol L419I (1255C>A), also TK L49R, pol A1169T, read-out: Drug susceptibility (IC50 value)): 31.5 µM
- IC50 (isolate HPG046, HSV-1 TK I166N (497T>A), read-out: Drug susceptibility (IC50 value)): 11.4 µM
- IC50 (isolate HPG050, HSV-1 TK Q34* (100C>T), read-out: Drug susceptibility (IC50 value)): > 40 µM
- IC50 (isolate HPG051, HSV-1 pol D83A (248A>C), also TK R176stop, read-out: Drug susceptibility (IC50 value)): 29.2 µM
- IC50 (isolate HPG052, HSV-1 TK Q34* (100C>T), read-out: Drug susceptibility (IC50 value)): 8.45 µM
- IC50 (isolate HPG053, HSV-1 pol S911N (2732G>A), also TK R176W, pol A1169T, read-out: Drug susceptibility (IC50 value)): > 40 µM
- IC50 (isolate HPG054, HSV-1 pol E992K (2974G>A), also TK insert (G) nt 430-436, pol A1169T, read-out: Drug susceptibility (IC50 value)): 8.25 µM
- IC50 (read-out: Drug susceptibility (IC50 value), isolate HPG005, HSV-1 TK A192T (574G>A)): 1.46 µM
- IC50 (read-out: Drug susceptibility (IC50 value), isolate HPG006, HSV-1 pol G121S (361G>A), also a TK resistance mutation (footnote a)): > 40 µM
- IC50 (read-out: Drug susceptibility (IC50 value), isolate HPG012, HSV-1 pol G985E (2954G>A), also TK A93V): > 40 µM
- IC50 (read-out: Drug susceptibility (IC50 value), isolate HPG016, HSV-1 pol A1169T (3505G>A)): 3.55 µM
- IC50 (read-out: Drug susceptibility (IC50 value), isolate HPG037, HSV-1 TK L69M (205>A), also TK Y239H): 24.8 µM
- IC50 (read-out: Drug susceptibility (IC50 value), isolate HPG042, HSV-1 TK frameshift (881delC to 885delC)): > 40 µM
- IC50 (read-out: Drug susceptibility (IC50 value), isolate HPG047, HSV-1 pol E680 (2039A>C), also TK deletion (C) nt 548-553, pol A1169T): 22.4 µM
